Results published in ChEMBL document CHEMBL5042504 (J Med Chem, 2022).

Key:
[1] = target: T1, Protein deacetylase HDAC6 (Homo sapiens, UniProt Q9UBN7); experiment: Inhibition of human recombinant HDAC6 using Boc-Lys(acetyl)-AMC substrate incubated for 2 hrs by fluorescence based assay
T1 sequence (Q9UBN7 whole entry): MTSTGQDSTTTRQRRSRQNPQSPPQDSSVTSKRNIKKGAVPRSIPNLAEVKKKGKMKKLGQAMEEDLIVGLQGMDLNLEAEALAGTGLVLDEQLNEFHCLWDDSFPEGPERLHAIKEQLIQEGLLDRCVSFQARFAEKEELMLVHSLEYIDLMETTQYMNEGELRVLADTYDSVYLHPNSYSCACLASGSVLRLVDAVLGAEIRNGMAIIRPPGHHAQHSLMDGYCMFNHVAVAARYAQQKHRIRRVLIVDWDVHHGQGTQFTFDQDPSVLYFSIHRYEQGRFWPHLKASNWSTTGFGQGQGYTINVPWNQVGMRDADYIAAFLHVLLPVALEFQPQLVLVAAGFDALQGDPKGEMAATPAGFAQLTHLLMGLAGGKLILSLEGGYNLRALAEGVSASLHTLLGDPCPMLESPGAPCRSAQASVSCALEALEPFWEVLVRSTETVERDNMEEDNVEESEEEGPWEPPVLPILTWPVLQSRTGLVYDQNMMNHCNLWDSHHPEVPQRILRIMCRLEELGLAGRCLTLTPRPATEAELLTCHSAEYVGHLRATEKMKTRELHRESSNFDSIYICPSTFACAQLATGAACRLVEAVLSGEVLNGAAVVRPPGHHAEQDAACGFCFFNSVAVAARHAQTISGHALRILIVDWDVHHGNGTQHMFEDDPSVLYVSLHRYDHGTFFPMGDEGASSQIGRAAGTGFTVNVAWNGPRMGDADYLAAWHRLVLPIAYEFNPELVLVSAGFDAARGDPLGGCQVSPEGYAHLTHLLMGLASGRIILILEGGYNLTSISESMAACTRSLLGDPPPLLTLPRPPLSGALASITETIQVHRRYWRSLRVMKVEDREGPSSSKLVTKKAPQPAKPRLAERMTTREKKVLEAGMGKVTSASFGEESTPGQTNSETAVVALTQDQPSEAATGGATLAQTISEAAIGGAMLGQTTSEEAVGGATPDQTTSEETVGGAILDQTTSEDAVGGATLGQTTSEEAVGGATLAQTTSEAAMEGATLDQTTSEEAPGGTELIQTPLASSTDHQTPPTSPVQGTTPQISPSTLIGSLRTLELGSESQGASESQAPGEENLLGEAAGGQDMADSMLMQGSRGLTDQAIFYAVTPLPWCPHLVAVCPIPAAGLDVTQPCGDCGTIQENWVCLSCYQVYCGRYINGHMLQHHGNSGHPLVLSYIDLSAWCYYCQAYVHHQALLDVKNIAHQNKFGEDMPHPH

Histone deacetylase 4 = Histone deacetylase 4 (Homo sapiens, UniProt P56524); experiment: Inhibition of human recombinant HDAC4 using Boc-Lys(triflouroacetyI)-AMC substrate incubated for 2 hrs by fluorescence based assay
Sequence of Histone deacetylase 4 (P56524 whole entry): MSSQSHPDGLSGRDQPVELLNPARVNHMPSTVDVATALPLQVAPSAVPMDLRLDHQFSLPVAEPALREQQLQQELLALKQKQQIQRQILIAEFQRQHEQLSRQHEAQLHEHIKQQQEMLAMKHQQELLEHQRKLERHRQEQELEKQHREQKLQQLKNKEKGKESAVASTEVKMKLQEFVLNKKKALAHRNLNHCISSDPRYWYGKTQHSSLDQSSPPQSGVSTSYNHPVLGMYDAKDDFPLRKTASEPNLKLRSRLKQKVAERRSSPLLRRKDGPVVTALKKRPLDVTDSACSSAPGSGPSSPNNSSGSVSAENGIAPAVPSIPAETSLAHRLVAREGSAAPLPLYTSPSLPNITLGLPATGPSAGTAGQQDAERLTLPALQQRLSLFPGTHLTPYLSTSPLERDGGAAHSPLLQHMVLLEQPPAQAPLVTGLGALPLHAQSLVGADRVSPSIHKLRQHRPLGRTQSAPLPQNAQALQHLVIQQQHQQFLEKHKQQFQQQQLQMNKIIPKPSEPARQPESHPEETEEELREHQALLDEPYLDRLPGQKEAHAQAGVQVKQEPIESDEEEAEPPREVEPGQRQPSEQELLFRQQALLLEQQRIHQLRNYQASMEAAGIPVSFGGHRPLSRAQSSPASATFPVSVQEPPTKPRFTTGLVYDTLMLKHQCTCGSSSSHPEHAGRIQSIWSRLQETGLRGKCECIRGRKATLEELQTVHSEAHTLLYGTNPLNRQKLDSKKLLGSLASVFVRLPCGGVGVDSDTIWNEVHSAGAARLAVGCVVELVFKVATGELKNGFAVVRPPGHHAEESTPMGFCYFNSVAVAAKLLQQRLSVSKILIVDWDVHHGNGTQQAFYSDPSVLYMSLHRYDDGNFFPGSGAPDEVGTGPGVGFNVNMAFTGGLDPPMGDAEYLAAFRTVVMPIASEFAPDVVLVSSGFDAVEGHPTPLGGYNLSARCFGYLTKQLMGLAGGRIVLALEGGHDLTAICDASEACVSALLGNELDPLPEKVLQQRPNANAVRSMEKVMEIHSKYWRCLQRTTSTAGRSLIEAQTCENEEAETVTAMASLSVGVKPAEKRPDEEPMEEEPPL

Histone deacetylase 9 = Histone deacetylase 9 (Homo sapiens, UniProt Q9UKV0); experiment: Inhibition of human recombinant HDAC9 using Boc-Lys(triflouroacetyI)-AMC substrate incubated for 2 hrs by fluorescence based assay
Sequence of Histone deacetylase 9 (Q9UKV0 whole entry): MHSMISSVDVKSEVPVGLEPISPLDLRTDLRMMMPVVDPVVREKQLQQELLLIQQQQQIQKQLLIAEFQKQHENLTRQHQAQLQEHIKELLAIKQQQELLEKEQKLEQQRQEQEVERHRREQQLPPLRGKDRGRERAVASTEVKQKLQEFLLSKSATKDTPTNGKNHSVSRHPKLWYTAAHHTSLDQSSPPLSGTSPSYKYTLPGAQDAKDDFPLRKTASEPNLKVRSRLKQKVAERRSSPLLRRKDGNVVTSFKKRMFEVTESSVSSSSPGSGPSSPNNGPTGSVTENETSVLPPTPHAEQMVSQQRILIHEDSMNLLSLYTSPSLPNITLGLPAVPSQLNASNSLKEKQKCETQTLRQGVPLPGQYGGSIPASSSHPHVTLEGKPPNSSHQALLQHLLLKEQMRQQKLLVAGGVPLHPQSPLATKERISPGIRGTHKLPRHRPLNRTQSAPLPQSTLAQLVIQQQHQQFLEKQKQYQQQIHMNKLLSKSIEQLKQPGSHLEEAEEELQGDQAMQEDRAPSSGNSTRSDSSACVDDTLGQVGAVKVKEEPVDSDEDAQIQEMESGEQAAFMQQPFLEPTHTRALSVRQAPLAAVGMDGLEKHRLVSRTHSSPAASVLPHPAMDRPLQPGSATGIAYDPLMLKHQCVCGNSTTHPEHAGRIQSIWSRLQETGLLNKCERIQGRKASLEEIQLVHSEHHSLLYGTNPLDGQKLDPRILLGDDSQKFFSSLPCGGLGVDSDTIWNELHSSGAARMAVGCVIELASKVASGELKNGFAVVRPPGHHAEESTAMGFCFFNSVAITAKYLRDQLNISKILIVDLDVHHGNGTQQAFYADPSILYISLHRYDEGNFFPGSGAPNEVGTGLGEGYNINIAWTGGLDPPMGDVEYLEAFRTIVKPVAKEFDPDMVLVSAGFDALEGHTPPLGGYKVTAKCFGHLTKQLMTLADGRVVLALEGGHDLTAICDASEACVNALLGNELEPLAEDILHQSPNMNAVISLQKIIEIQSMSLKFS

[2] = target: T2, Polyamine deacetylase HDAC10 (Homo sapiens, UniProt Q969S8); experiment: Inhibition of human recombinant HDAC10 using Boc-Lys(triflouroacetyI)-AMC substrate incubated for 2 hrs by fluorescence based assay
T2 sequence (Q969S8 whole entry): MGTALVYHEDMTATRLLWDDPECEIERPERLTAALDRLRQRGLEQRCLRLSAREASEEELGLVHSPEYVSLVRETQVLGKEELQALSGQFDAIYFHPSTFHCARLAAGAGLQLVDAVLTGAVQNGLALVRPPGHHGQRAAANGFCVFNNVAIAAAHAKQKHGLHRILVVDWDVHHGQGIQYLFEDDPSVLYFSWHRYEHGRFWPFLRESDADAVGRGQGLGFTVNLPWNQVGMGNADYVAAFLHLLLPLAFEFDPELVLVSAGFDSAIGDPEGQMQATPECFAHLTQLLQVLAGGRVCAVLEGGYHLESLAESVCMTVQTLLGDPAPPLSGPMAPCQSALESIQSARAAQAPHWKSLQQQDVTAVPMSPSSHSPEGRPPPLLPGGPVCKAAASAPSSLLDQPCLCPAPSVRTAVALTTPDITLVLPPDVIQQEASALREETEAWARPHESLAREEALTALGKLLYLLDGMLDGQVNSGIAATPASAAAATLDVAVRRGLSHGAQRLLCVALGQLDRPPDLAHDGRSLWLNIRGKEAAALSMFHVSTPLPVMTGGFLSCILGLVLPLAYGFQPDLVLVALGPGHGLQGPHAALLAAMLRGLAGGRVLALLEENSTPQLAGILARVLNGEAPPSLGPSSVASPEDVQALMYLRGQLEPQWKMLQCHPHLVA

Histone deacetylase 5 = Histone deacetylase 5 (Homo sapiens, UniProt Q9UQL6); experiment: Inhibition of human recombinant HDAC5 using Boc-Lys(triflouroacetyI)-AMC substrate incubated for 2 hrs by fluorescence based assay
Sequence of Histone deacetylase 5 (Q9UQL6 whole entry): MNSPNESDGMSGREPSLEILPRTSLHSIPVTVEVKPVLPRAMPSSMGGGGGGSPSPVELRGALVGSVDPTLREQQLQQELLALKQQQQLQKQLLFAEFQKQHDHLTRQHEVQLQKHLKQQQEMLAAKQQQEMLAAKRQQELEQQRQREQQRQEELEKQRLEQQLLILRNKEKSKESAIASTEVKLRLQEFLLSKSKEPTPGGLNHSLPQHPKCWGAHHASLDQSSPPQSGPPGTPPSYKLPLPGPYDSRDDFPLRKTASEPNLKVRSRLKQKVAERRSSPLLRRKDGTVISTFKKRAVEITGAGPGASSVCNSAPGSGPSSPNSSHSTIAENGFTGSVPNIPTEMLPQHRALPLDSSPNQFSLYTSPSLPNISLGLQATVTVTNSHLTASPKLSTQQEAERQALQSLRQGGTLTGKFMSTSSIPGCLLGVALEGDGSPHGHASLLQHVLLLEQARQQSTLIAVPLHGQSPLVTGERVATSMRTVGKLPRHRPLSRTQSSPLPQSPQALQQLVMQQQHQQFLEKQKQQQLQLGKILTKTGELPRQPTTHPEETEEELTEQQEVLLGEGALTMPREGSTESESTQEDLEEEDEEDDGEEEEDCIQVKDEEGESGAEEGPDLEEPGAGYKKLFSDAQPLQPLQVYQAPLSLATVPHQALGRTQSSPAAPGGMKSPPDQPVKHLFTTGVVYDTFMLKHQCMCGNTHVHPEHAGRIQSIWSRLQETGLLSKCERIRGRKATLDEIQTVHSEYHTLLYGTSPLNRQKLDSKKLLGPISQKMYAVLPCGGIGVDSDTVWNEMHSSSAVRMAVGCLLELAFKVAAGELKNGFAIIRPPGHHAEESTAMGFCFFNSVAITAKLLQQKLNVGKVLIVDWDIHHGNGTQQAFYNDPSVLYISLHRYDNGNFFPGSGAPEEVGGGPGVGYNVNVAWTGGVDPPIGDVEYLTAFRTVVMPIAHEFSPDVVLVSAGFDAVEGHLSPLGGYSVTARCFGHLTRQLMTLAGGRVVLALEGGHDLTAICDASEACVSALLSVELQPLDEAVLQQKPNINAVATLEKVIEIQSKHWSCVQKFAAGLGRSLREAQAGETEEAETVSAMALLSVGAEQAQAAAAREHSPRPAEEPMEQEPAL

HL-60 = experiment: Antiproliferative activity against human HL-60 cells assessed as reduction in cell viability after 48 hrs by multiplate reader method; settings: HL-60, 48 h
Histone deacetylase 8 = target: T3, Histone deacetylase 8 (Homo sapiens, UniProt Q9BY41); experiment: Inhibition of human recombinant HDAC8 using Boc-Lys(triflouroacetyI)-AMC substrate incubated for 2 hrs by fluorescence based assay
T3 sequence (Q9BY41 whole entry): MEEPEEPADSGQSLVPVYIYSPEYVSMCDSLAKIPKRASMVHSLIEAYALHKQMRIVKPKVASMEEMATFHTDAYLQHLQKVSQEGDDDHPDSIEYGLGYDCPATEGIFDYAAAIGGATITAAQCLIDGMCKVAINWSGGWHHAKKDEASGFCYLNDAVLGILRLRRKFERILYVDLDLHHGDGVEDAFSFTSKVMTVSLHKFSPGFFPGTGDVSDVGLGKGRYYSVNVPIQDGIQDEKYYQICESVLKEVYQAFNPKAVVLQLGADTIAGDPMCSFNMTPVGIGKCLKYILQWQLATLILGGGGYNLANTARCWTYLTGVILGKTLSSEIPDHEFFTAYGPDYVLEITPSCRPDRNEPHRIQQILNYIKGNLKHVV

`CCCNNC(=O)c1ccc(CNC(=O)/C=C/c2ccccc2)cc1` was tested, and the IC50 [1] was > 10 µM, the IC50 (Histone deacetylase 4) was > 5 µM and the IC50 (Histone deacetylase 9) was > 5 µM. The IC50 [2] was > 5 µM, the IC50 (Histone deacetylase 5) was > 5 µM and the IC50 (HL-60) was 0.0517 µM. The IC50 (Histone deacetylase 8) was > 5 µM.
In the case of `CCCNNC(=O)c1ccc(CNC(=O)c2cc3ccccc3[nH]2)cc1`, the IC50 [1] is reported as > 10 µM, the IC50 (Histone deacetylase 4) is reported as > 5 µM and the IC50 (Histone deacetylase 9) is reported as > 5 µM. For the same compound, the IC50 [2] was > 5 µM, the IC50 (Histone deacetylase 5) was > 5 µM and the IC50 (HL-60) was 0.0262 µM. The IC50 (Histone deacetylase 8) was > 5 µM.
